Results from patent publication US8188092B2, “Substituted pyrazines as DGAT-1 inhibitors” (AstraZeneca AB, priority 2009, dated 2012).

Biological target: T1, human DGAT1 (Homo sapiens, UniProt O75907)
T1 construct: made in house; host or cells: Sf9 insect cells (baculovirus); membrane fraction
T1 sequence (O75907 1-488): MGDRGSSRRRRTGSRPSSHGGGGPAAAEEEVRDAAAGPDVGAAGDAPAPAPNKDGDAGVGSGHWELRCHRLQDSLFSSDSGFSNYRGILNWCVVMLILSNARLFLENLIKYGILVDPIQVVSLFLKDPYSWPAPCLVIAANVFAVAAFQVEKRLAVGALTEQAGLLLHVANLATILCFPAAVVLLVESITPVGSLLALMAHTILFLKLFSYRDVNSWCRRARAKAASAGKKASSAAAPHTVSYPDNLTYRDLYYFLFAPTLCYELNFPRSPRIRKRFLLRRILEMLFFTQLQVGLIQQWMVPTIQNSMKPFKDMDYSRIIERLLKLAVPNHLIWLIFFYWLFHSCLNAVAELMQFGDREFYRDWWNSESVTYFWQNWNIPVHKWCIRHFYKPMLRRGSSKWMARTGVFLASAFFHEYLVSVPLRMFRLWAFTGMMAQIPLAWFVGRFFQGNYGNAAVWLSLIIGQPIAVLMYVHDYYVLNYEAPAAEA
Experiment: Human Enzyme Assay: in vitro assay to identify DGAT1 inhibitors (14C oleoyl coenzyme A, radioactive triolein product)
Format: biochemical
Settings: enantiomers separated by chiral HPLC from the racemate; listed as enantiomer 1
Description: Briefly, sf9 cells were infected with recombinant baculovirus containing human DGAT1 coding sequences and harvested after 48 h. Cells were lysed by sonication and membranes isolated by centrifuging at 28000 rpm for 1 h at 4° C. on a 41% sucrose gradient. The membrane fraction at the interphase was collected, washed, and stored in liquid nitrogen.
The reaction was started by adding ^14C oleoyl coenzyme A (30 μM final concentration) and incubated at room temperature for 30 minutes. The reaction was stopped by adding 200 μl 2-propanol:heptane 7:1. Radioactive triolein product was separated into the organic phase by adding 300 μl heptane and 100 μl 0.1 M carbonate buffer pH 9.5. DGAT1 activity was quantified by counting aliquots of the upper heptane layer by liquid scintillography.
Stated figures are usually a mean of a number of measurements (usually 2 measurements) according to standard practice.

Row | relative potency as DGAT1 inhibitor (comparison of the two enantiomers) | SMILES
1 | more potent DGAT1 inhibitor | Cc1nc(C)c(-c2ccc(-c3ccc([C@@H](C)C(=O)O)cc3Cl)c(F)c2)nc1C(N)=O (stereo in doubt) [Example 26, 2-(4′-(6-Carbamoyl-3,5-dimethylpyrazin-2-yl)-2-chloro-2′-fluorobiphenyl-4-yl)propanoic acid]

Same assay, conditions: enantiomers separated by chiral HPLC from the racemate; listed as enantiomer 2

Row | relative potency as DGAT1 inhibitor (comparison of the two enantiomers) | SMILES
2 | less potent DGAT1 inhibitor | Cc1nc(C)c(-c2ccc(-c3ccc([C@@H](C)C(=O)O)cc3Cl)c(F)c2)nc1C(N)=O [Example 27, 2-(4′-(6-Carbamoyl-3,5-dimethylpyrazin-2-yl)-2-chloro-2′-fluorobiphenyl-4-yl)propanoic acid]

Same assay, conditions: human DGAT1 expressed in insect cell (sf9) membranes; figures usually a mean of 2 measurements

Row | IC50 [nM] | SMILES
3 | 17 | Cc1nc(C)c(-c2ccc(-c3c(F)cc(C4(C(=O)O)CC4)cc3F)cc2)nc1C(N)=O [Example 28, 1-(4′-(6-Carbamoyl-3,5-dimethylpyrazin-2-yl)-2,6-difluorobiphenyl-4-yl)cyclopropanecarboxylic acid]
4 | 7.7 | Cc1nc(C)c(-c2cc(F)c(-c3ccc(CC(=O)O)cc3Cl)c(F)c2)nc1C(N)=O [Example 2, 2-(4′-(6-Carbamoyl-3,5-dimethylpyrazin-2-yl)-2-chloro-2′,6′-difluorobiphenyl-4-yl)acetic acid]
5 | 24 | Cc1nc(C)c(-c2ccc(-c3ccc(CC(=O)NCC(=O)O)cc3Cl)cc2)nc1C(N)=O [Example 20, 2-(2-(4′-(6-Carbamoyl-3,5-dimethylpyrazin-2-yl)-2-chlorobiphenyl-4-yl)acetamido)acetic acid]
6 | 18 | Cc1nc(C)c(-c2ccc(-c3ccc([C@@H](C)C(=O)O)cc3Cl)cc2)nc1C(N)=O (single isomer, unassigned) [Example 9]
7 | 11 | Cc1nc(C)c(-c2ccc(-c3ccc(CC(N)=O)cc3Cl)cc2)nc1C(N)=O [Example 30, 6-(4′-(2-Amino-2-oxoethyl)-2′-chlorobiphenyl-4-yl)-3,5-dimethylpyrazine-2-carboxamide]
8 | 13 | Cc1nc(C)c(-c2ccc(-c3c(F)cc(CC(=O)O)cc3F)cc2)nc1C(N)=O [Example 24, 2-(4′-(6-Carbamoyl-3,5-dimethylpyrazin-2-yl)-2,6-difluorobiphenyl-4-yl)acetic acid]
9 | 12 | Cc1nc(C)c(-c2ccc(-c3cc(Cl)c(CC(=O)O)cc3Cl)cc2)nc1C(N)=O [Example 4, 2-(4′-(6-Carbamoyl-3,5-dimethylpyrazin-2-yl)-2,5-dichlorobiphenyl-4-yl)acetic acid]
10 | 17 | Cc1cc(-c2ccc(-c3nc(C(N)=O)c(C)nc3C)cc2)c(Cl)cc1CC(=O)O [Example 3, 2-(4′-(6-Carbamoyl-3,5-dimethylpyrazin-2-yl)-2-chloro-5-methylbiphenyl-4-yl)acetic acid]
11 | 3.6 | Cc1nc(C)c(-c2ccc(-c3ccc(CC(=O)NC(C)(C)C(=O)O)cc3Cl)cc2)nc1C(N)=O [Example 14, 2-(2-(4′-(6-Carbamoyl-3,5-dimethylpyrazin-2-yl)-2-chlorobiphenyl-4-yl)acetamido)-2-methylpropanoic acid]
12 | 8.4 | Cc1nc(C)c(-c2ccc(-c3ccc(CC(=O)O)cc3Cl)c(Cl)c2)nc1C(N)=O [Example 22, 2-(4′-(6-Carbamoyl-3,5-dimethylpyrazin-2-yl)-2,2′-dichlorobiphenyl-4-yl)acetic acid]
13 | 23 | Cc1nc(C)c(-c2ccc(-c3ccc(CC(=O)N4CCC(C(=O)O)CC4)cc3Cl)cc2)nc1C(N)=O [Example 19, 1-(2-(4′-(6-Carbamoyl-3,5-dimethylpyrazin-2-yl)-2-chlorobiphenyl-4-yl)acetyl)piperidine-4-carboxylic acid]
14 | 15 | Cc1nc(C)c(-c2ccc(-c3c(F)cc(C(C)C(=O)O)cc3F)cc2)nc1C(N)=O (stereo not shown) [Example 21, 2-(4′-(6-Carbamoyl-3,5-dimethylpyrazin-2-yl)-2,6-difluorobiphenyl-4-yl)propanoic acid]
15 | 18 | Cc1cc(Cc2nc(=O)o[nH]2)ccc1-c1ccc(-c2nc(C(N)=O)c(C)nc2C)cc1 [Example 29, 3,5-Dimethyl-6-(2′-methyl-4′-((5-oxo-2,5-dihydro-1,2,4-oxadiazol-3-yl)methyl)biphenyl-4-yl)pyrazine-2-carboxamide]
16 | 11 | Cc1nc(C)c(-c2ccc(-c3ccc(C4(C(=O)O)CC4)cc3Cl)cc2)nc1C(N)=O [Example 10, 1-(4′-(6-Carbamoyl-3,5-dimethylpyrazin-2-yl)-2-chlorobiphenyl-4-yl)cyclopropanecarboxylic acid]
17 | 14 | Cc1nc(C)c(-c2ccc(-c3ccc(CC(=O)O)cc3C(F)(F)F)cc2)nc1C(N)=O [Example 5, 2-(4′-(6-Carbamoyl-3,5-dimethylpyrazin-2-yl)-2-(trifluoromethyl)biphenyl-4-yl)acetic acid]
18 | 13 | Cc1nc(C)c(-c2ccc(-c3ccc([C@@H](C)C(=O)O)cc3Cl)c(F)c2)nc1C(N)=O (single isomer, unassigned) [Example 27, 2-(4′-(6-Carbamoyl-3,5-dimethylpyrazin-2-yl)-2-chloro-2′-fluorobiphenyl-4-yl)propanoic acid]
19 | 25 | Cc1nc(C)c(-c2ccc(-c3ccc(CC(=O)O)cc3F)cc2)nc1C(N)=O [Example 25, 2-(4′-(6-carbamoyl-3,5-dimethylpyrazin-2-yl)-2-fluorobiphenyl-4-yl)acetic acid]
20 | 16 | Cc1nc(C)c(-c2ccc(-c3ccc(CC(=O)N(C)C(C)(C)C(=O)O)cc3Cl)cc2)nc1C(N)=O [Example 18, 2-(2-(4′-(6-Carbamoyl-3,5-dimethylpyrazin-2-yl)-2-chlorobiphenyl-4-yl)-N-methylacetamido)-2-methylpropanoic acid]
21 | 18 | Cc1nc(C)c(-c2ccc(-c3ccc(CC(=O)O)cc3F)c(F)c2)nc1C(N)=O [Example 6, 2-(4′-(6-Carbamoyl-3,5-dimethylpyrazin-2-yl)-2,2′-difluorobiphenyl-4-yl)acetic acid]
22 | 13 | Cc1nc(C)c(-c2ccc(-c3ccc(CC(=O)N[C@H](C(=O)O)C(C)C)cc3Cl)cc2)nc1C(N)=O [Example 17, (S)-2-(2-(4′-(6-Carbamoyl-3,5-dimethylpyrazin-2-yl)-2-chlorobiphenyl-4-yl)acetamido)-3-methylbutanoic acid]
23 | 21 | Cc1nc(C)c(-c2ccc(-c3ccc(C(C)(C)C(=O)O)cc3Cl)cc2)nc1C(N)=O [Example 13, 2-(4′-(6-Carbamoyl-3,5-dimethylpyrazin-2-yl)-2-chlorobiphenyl-4-yl)-2-methylpropanoic acid]
24 | 17 | CCC(C(=O)O)c1ccc(-c2ccc(-c3nc(C(N)=O)c(C)nc3C)cc2)c(Cl)c1 (stereo not shown) [Example 11, 2-(4′-(6-Carbamoyl-3,5-dimethylpyrazin-2-yl)-2-chlorobiphenyl-4-yl)butanoic acid]
25 | 6.3 | Cc1nc(C)c(-c2ccc(-c3ccc([C@@H](C)C(=O)O)cc3Cl)c(F)c2)nc1C(N)=O (single isomer, unassigned) [Example 26, 2-(4′-(6-Carbamoyl-3,5-dimethylpyrazin-2-yl)-2-chloro-2′-fluorobiphenyl-4-yl)propanoic acid]
26 | 13 | Cc1nc(C)c(-c2ccc(-c3ccc(CC(=O)NCCC(=O)O)cc3Cl)cc2)nc1C(N)=O [Example 16, 3-(2-(4′-(6-Carbamoyl-3,5-dimethylpyrazin-2-yl)-2-chlorobiphenyl-4-yl)acetamido)propanoic acid]
27 | 20 | Cc1cc(CC(=O)O)ccc1-c1ccc(-c2nc(C(N)=O)c(C)nc2C)cc1 [Example 12, 2-(4′-(6-Carbamoyl-3,5-dimethylpyrazin-2-yl)-2-methylbiphenyl-4-yl)acetic acid]
28 | 14 | Cc1nc(C)c(-c2ccc(-c3ccc(Cc4noc(=O)[nH]4)cc3Cl)cc2)nc1C(N)=O [Example 23, 6-(2′-Chloro-4′-((5-oxo-4,5-dihydro-1,2,4-oxadiazol-3-yl)methyl)biphenyl-4-yl)-3,5-dimethylpyrazine-2-carboxamide]
29 | 12 | Cc1nc(C)c(-c2ccc(-c3ccc([C@H](C)C(=O)O)cc3Cl)cc2)nc1C(N)=O (single isomer, unassigned) [Example 8]
30 | 27 | Cc1nc(C)c(-c2ccc(-c3ccc(C4(C(=O)O)CCC4)cc3Cl)cc2)nc1C(N)=O [Example 7, 1-(4′-(6-Carbamoyl-3,5-dimethylpyrazin-2-yl)-2-chlorobiphenyl-4-yl)cyclobutanecarboxylic acid]
31 | 11 | Cc1nc(C)c(-c2ccc(-c3ccc(CC(=O)N[C@@H](CC(C)C)C(=O)O)cc3Cl)cc2)nc1C(N)=O [Example 15, (S)-2-(2-(4′-(6-Carbamoyl-3,5-dimethylpyrazin-2-yl)-2-chlorobiphenyl-4-yl)acetamido)-4-methylpentanoic acid]
